Legend:
[1] = molecular target: T1, WRN [UniPro: Q14191 (WRN_HUMAN), N500-C946] (Homo sapiens (Human), UniProt Q14191); experiment: WRN ATPase assay (ADP-Glo); type: biochemical; settings: WRN enzymatic activity assay
[2] = molecular target: T1, WRN [UniPro: Q14191 (WRN_HUMAN), N500-C946]; experiment: WRN unwinding assay (FORKF DNA, fluorescence); type: biochemical; settings: Table 14

T1 sequence (Q14191 500-946): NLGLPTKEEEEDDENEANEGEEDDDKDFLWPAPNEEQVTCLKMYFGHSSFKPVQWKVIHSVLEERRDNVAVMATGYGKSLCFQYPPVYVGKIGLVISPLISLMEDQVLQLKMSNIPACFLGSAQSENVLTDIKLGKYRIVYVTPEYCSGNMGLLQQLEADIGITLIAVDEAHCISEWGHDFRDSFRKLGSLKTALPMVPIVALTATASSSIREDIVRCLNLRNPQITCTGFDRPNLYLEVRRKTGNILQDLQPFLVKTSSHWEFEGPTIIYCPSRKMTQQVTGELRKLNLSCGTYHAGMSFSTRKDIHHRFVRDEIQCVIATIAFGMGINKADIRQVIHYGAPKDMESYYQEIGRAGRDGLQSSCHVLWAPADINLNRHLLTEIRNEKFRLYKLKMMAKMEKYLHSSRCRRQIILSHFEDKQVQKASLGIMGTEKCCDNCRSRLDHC

SMILES	IC50 [1] [nM]	IC50 [2] [nM]
CCc1c(N2CCN(C(=O)c3ncn4cccc4c3O)CC2)c(=O)n2nc(C3=CCOCC3)nc2n1CC(=O)Nc1ccc(C(F)(F)F)cc1Cl [Example 202, N-(2-Chloro-4-(trifluoromethyl)phenyl)-2-(2-(3,6-dihydro-2H-pyran-4-yl)-5-ethyl-6-(4-(4-hydroxypyrrolo[1,2-c]pyrimidine-3-carbonyl)piperazin-1-yl)-7-oxo-[1,2,4]triazolo[1,5-a]pyrimidin-4(7H)-yl)acetamide]	100 to 1000	100 to 1000
CCc1c(N2CCN(C(=O)CNC(=O)c3ccccc3)CC2)c(=O)n2nc(C3CC3)nc2n1CC(=O)Nc1ccc(C(F)(F)F)cc1Cl [Example 238, N-(2-(4-(4-(2-((2-Chloro-4-(trifluoromethyl)phenyl)amino)-2-oxoethyl)-2-cyclopropyl-5-ethyl-7-oxo-4,7-dihydro-[1,2,4]triazolo[1,5-a]pyrimidin-6-yl)piperazin-1-yl)-2-oxoethyl)benzamide]	100 to 1000	100 to 1000
CCc1c(N2CCN(C(=O)C(=O)NCC(F)(F)F)CC2)c(=O)n2nc(C3=CCOCC3)nc2n1CC(=O)Nc1ccc(C(F)(F)F)cc1Cl [Example 360, 2-(4-(4-(2-((2-Chloro-4-(trifluoromethyl)phenyl)amino)-2-oxoethyl)-2-(3,6-dihydro-2H-pyran-4-yl)-5-ethyl-7-oxo-4,7-dihydro-[1,2,4]triazolo[1,5-a]pyrimidin-6-yl)piperazin-1-yl)-2-oxo-N-(2,2,2-trifluoroethyl)acetamide]	> 1000	> 1000
CCc1c(N2CCN(C(=O)C(=O)Nc3cscn3)CC2)c(=O)n2nc(C3=CCOCC3)nc2n1CC(=O)Nc1ccc(C(F)(F)F)cc1Cl [Example 335, 2-(4-(4-(2-((2-Chloro-4-(trifluoromethyl)phenyl)amino)-2-oxoethyl)-2-(3,6-dihydro-2H-pyran-4-yl)-5-ethyl-7-oxo-4,7-dihydro-[1,2,4]triazolo[1,5-a]pyrimidin-6-yl)piperazin-1-yl)-2-oxo-N-(thiazol-4-yl)acetamide]	100 to 1000	< 100
CCc1c(N2CCN(C(=O)c3ccnc(=O)[nH]3)CC2)c(=O)n2nc(C3=CCOCC3)nc2n1CC(=O)Nc1ccc(C(F)(F)F)cc1Cl [Example 79, N-(2-Chloro-4-(trifluoromethyl)phenyl)-2-(2-(3,6-dihydro-2H-pyran-4-yl)-5-ethyl-7-oxo-6-(4-(2-oxo-2,3-dihydropyrimidine-4-carbonyl)piperazin-1-yl)-[1,2,4]triazolo[1,5-a]pyrimidin-4(7H)-yl)acetamide]	100 to 1000	< 100
CCc1c(N2CCN(C(=O)CNC(=O)C(C)(C)C)CC2)c(=O)n2nc(C3=CCOCC3)nc2n1CC(=O)Nc1ccc(C(F)(F)F)cc1Cl [Example 169, N-(2-(4-(4-(2-((2-Chloro-4-(trifluoromethyl)phenyl)amino)-2-oxoethyl)-2-(3,6-dihydro-2H-pyran-4-yl)-5-ethyl-7-oxo-4,7-dihydro-[1,2,4]triazolo[1,5-a]pyrimidin-6-yl)piperazin-1-yl)-2-oxoethyl)pivalamide]	100 to 1000	< 100
CCc1c(N2CCN(C(=O)CNC(=O)c3ccccc3F)CC2)c(=O)n2nc(C3=CCOCC3)nc2n1CC(=O)Nc1cc(F)c(C(F)(F)F)cc1C [Example 144, N-(2-(4-(2-(3,6-Dihydro-2H-pyran-4-yl)-5-ethyl-4-(2-((5-fluoro-2-methyl-4-(trifluoromethyl)phenyl)amino)-2-oxoethyl)-7-oxo-4,7-dihydro-[1,2,4]triazolo[1,5-a]pyrimidin-6-yl)piperazin-1-yl)-2-oxoethyl)-2-fluorobenzamide]	100 to 1000	< 100
CCc1c(N2CCN(C(=O)c3nc4cnccn4c3O)CC2)c(=O)n2nc(C3=CCOCC3)nc2n1CC(=O)Nc1ccc(C(F)(F)F)cc1Cl [Example 75, N-(2-Chloro-4-(trifluoromethyl)phenyl)-2-(2-(3,6-dihydro-2H-pyran-4-yl)-5-ethyl-6-(4-(3-hydroxyimidazo[1,2-a]pyrazine-2-carbonyl)piperazin-1-yl)-7-oxo-[1,2,4]triazolo[1,5-a]pyrimidin-4(7H)-yl)acetamide]	100 to 1000	< 100
CCc1c(N2CCN(C(=O)C(=O)N3CCOCC3)CC2)c(=O)n2nc(C3=CCOCC3)nc2n1CC(=O)Nc1ccc(C(F)(F)F)cc1Cl [Example 356, N-(2-Chloro-4-(trifluoromethyl)phenyl)-2-(2-(3,6-dihydro-2H-pyran-4-yl)-5-ethyl-6-(4-(2-morpholino-2-oxoacetyl)piperazin-1-yl)-7-oxo-[1,2,4]triazolo[1,5-a]pyrimidin-4(7H)-yl)acetamide]	> 1000	> 1000
CCc1c(N2CCN(C(=O)CNC(=O)NC(=O)c3cc(F)ccc3F)CC2)c(=O)n2nc(C3=CCOCC3)nc2n1CC(=O)Nc1ccc(C(F)(F)F)cc1Cl [Example 265, N-((2-(4-(4-(2-((2-Chloro-4-(trifluoromethyl)phenyl)amino)-2-oxoethyl)-2-(3,6-dihydro-2H-pyran-4-yl)-5-ethyl-7-oxo-4,7-dihydro-[1,2,4]triazolo[1,5-a]pyrimidin-6-yl)piperazin-1-yl)-2-oxoethyl)carbamoyl)-2,5-difluorobenzamide]	< 100	< 100
CCc1c(N2CCN(C(=O)CNC(=O)c3cc(C)no3)CC2)c(=O)n2nc(C3=CCOCC3)nc2n1CC(=O)Nc1ccc(C(F)(F)F)cc1Cl [Example 130, N-(2-(4-(4-(2-((2-Chloro-4-(trifluoromethyl)phenyl)amino)-2-oxoethyl)-2-(3,6-dihydro-2H-pyran-4-yl)-5-ethyl-7-oxo-4,7-dihydro-[1,2,4]triazolo[1,5-a]pyrimidin-6-yl)piperazin-1-yl)-2-oxoethyl)-3-methylisoxazole-5-carboxamide]	< 100	< 100
CCc1c(N2CCN(C(=O)CNC(=O)Cc3ccc(F)cc3)CC2)c(=O)n2nc(C3=CCOCC3)nc2n1CC(=O)Nc1ccc(C(F)(F)F)cc1Cl [Example 177, N-(2-Chloro-4-(trifluoromethyl)phenyl)-2-(2-(3,6-dihydro-2H-pyran-4-yl)-5-ethyl-6-(4-((2-(4-fluorophenyl)acetyl)glycyl)piperazin-1-yl)-7-oxo-[1,2,4]triazolo[1,5-a]pyrimidin-4(7H)-yl)acetamide]	< 100	< 100
CCc1c(N2CCN(C(=O)c3ncc4nc(Cl)sc4c3O)CC2)c(=O)n2nc(C3=CCOCC3)nc2n1CC(=O)Nc1ccc(C(F)(F)F)cc1Cl [Example 196, N-(2-Chloro-4-(trifluoromethyl)phenyl)-2-(6-(4-(2-chloro-7-hydroxythiazolo[4,5-c]pyridine-6-carbonyl)piperazin-1-yl)-2-(3,6-dihydro-2H-pyran-4-yl)-5-ethyl-7-oxo-[1,2,4]triazolo[1,5-a]pyrimidin-4(7H)-yl)acetamide]	< 100	< 100

Results, then the compound that gave them:

IC50 [1] [nM]	IC50 [2] [nM]	SMILES
< 100	< 100	CCc1c(N2CCN(C(=O)CNC(=O)c3ccco3)CC2)c(=O)n2nc(C3=CCOCC3)nc2n1CC(=O)Nc1ccc(C(F)(F)F)cc1Cl [Example 385, N-(2-(4-(4-(2-((2-Chloro-4-(trifluoromethyl)phenyl)amino)-2-oxoethyl)-2-(3,6-dihydro-2H-pyran-4-yl)-5-ethyl-7-oxo-4,7-dihydro-[1,2,4]triazolo[1,5-a]pyrimidin-6-yl)piperazin-1-yl)-2-oxoethyl)furan-2-carboxamide]
< 100	< 100	CCc1c(N2CCN(C(=O)C(=O)Nc3ccno3)CC2)c(=O)n2nc(C3=CCOCC3)nc2n1CC(=O)Nc1ccc(C(F)(F)F)cc1Cl [Example 354, 2-(4-(4-(2-((2-Chloro-4-(trifluoromethyl)phenyl)amino)-2-oxoethyl)-2-(3,6-dihydro-2H-pyran-4-yl)-5-ethyl-7-oxo-4,7-dihydro-[1,2,4]triazolo[1,5-a]pyrimidin-6-yl)piperazin-1-yl)-N-(isoxazol-5-yl)-2-oxoacetamide]
< 100	< 100	CCc1c(N2CCN(C(=O)CNC(=O)c3cccc(F)c3)CC2)c(=O)n2nc(C3=CCOCC3)nc2n1CC(=O)Nc1ccc(C(F)(F)F)cc1Cl [Example 99, N-(2-(4-(4-(2-((2-Chloro-4-(trifluoromethyl)phenyl)amino)-2-oxoethyl)-2-(3,6-dihydro-2H-pyran-4-yl)-5-ethyl-7-oxo-4,7-dihydro-[1,2,4]triazolo[1,5-a]pyrimidin-6-yl)piperazin-1-yl)-2-oxoethyl)-3-fluorobenzamide]
< 100	100 to 1000	CCc1c(N2CCN(C(=O)CNC(=O)OC(C)(C)C)CC2)c(=O)n2nc(C3=CCOCC3)nc2n1CC(=O)Nc1ccc(C(F)(F)F)cc1Cl [Example 37, tert-Butyl (2-(4-(4-(2-((2-chloro-4-(trifluoromethyl)phenyl)amino)-2-oxoethyl)-2-(3,6-dihydro-2H-pyran-4-yl)-5-ethyl-7-oxo-4,7-dihydro-[1,2,4]triazolo[1,5-a]pyrimidin-6-yl)piperazin-1-yl)-2-oxoethyl)carbamate]
< 100	< 100	CCc1c(N2CCN(C(=O)c3cnn4cncc4c3O)CC2)c(=O)n2nc(C3=CCOCC3)nc2n1CC(=O)Nc1ccc(C(F)(F)F)cc1Cl [Example 201, N-(2-Chloro-4-(trifluoromethyl)phenyl)-2-(2-(3,6-dihydro-2H-pyran-4-yl)-5-ethyl-6-(4-(4-hydroxyimidazo[1,5-b]pyridazine-3-carbonyl)piperazin-1-yl)-7-oxo-[1,2,4]triazolo[1,5-a]pyrimidin-4(7H)-yl)acetamide]
< 100	< 100	CCc1c(N2CCN(C(=O)c3n[nH]c(=O)cc3O)CC2)c(=O)n2nc(C3=CCOCC3)nc2n1CC(=O)Nc1ccc(C(F)(F)F)cc1Cl [Example 48, N-(2-Chloro-4-(trifluoromethyl)phenyl)-2-(2-(3,6-dihydro-2H-pyran-4-yl)-5-ethyl-6-(4-(4-hydroxy-6-oxo-1,6-dihydropyridazine-3-carbonyl)piperazin-1-yl)-7-oxo-[1,2,4]triazolo[1,5-a]pyrimidin-4(7H)-yl)acetamide]
